Experiment [1] has as its target T1, Protein cereblon/Protein deacetylase HDAC6 (Homo sapiens, UniProt Q9UBN7+Q96SW2). As to the kind of experiment: PROTAC activity at CRBN/HDAC6 (unknown origin) assessed as degradation of HDAC6 relative to control. In kind it is protein assay.
In experiment [2] the target is T1, Protein cereblon/Protein deacetylase HDAC6. The experiment can be described thus: PROTAC activity at CRBN/HDAC6 (unknown origin) assessed as degradation of HDAC6. In kind it is protein assay.
Experiment [3] has as its target E3 ubiquitin-protein ligase RNF114 (Homo sapiens, UniProt Q9Y508). As to the kind of experiment: Inhibition of RNF114 (unknown origin).
Experiment [4] deals with E3 ubiquitin-protein ligase RNF114/Bromodomain-containing protein 4 (Homo sapiens, UniProt O60885+Q9Y508). As to the kind of experiment: PROTAC activity at RNF114/BRD4 (unknown origin) assessed as degradation of BRD4 incubated for 30 mins SDS-PAGE based fluorescence analysis.
The subject of the next experiment is HT-29. The experiment can be described thus: Cytotoxicity against human HT-29 cells incubated for 72 hrs by CCK-8 assay. In kind it is functional, cell-based. The settings on record: HT-29, 72 h. (In general: Tetrazolium dyes change colour on reduction, which living cells bring about.)
Experiment [5] concerns the target T2, 3-hydroxy-3-methylglutaryl-coenzyme A reductase (Homo sapiens, UniProt P04035).
T2 sequence (P04035 whole entry): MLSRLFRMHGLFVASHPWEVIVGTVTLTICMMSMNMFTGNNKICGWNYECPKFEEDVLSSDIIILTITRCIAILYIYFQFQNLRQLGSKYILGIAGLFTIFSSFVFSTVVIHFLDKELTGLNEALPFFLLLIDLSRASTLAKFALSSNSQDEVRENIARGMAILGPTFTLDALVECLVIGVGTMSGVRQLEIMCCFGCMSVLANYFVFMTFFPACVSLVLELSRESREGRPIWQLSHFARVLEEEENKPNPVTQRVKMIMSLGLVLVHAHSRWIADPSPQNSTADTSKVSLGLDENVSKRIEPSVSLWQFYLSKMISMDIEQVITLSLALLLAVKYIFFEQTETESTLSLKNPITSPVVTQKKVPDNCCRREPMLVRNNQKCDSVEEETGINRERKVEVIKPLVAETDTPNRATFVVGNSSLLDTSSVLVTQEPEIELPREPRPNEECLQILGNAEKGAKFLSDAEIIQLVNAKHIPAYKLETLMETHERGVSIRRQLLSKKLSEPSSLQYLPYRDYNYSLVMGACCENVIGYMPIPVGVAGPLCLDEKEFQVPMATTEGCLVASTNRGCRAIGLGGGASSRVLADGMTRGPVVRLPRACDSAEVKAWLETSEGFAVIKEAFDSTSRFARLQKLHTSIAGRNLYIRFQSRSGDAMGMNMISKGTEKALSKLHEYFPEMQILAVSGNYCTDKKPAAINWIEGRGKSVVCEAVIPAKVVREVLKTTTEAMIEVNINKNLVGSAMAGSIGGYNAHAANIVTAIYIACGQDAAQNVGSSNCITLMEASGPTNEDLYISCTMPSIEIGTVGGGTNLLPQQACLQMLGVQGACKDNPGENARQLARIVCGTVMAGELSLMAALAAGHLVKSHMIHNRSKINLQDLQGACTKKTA
The experiment can be described thus: Inhibition of HMGCR (unknown origin).

The target of experiment [6] is T3, von Hippel-Lindau disease tumor suppressor/3-hydroxy-3-methylglutaryl-coenzyme A reductase (Homo sapiens, UniProt P04035+P40337). As to the kind of experiment: PROTAC activity at VHL/HMGCR in human HepG2 cells assessed as degradation of HMGCR measured at 1 uM after 16 hrs relative to control. The experiment is classed as cell-based.
Target sequence in this assay (P40337 whole entry, looked up, one chain of several): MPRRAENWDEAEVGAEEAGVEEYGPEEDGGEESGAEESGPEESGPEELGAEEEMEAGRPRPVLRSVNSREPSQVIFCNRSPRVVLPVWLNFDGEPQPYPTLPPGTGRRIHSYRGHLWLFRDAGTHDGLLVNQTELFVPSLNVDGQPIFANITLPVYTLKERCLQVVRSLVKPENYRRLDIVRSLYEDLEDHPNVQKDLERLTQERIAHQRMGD
The test system of another experiment is HFF-1. As to the kind of experiment: Cytotoxicity against human HFF-1 cells incubated for 72 hrs by CCK-8 assay. The experiment is classed as functional, cell-based. The settings on record: HFF-1, 72 h.
Another experiment concerns HeLa. The experiment can be described thus: Cytotoxicity against human HeLa cells incubated for 72 hrs by CCK-8 assay. The experiment is classed as functional, cell-based.
In experiment [7] the target is T3, von Hippel-Lindau disease tumor suppressor/3-hydroxy-3-methylglutaryl-coenzyme A reductase. The experiment can be described thus: PROTAC activity at VHL/recombinant HMGCR in human HepG2 cells assessed as degradation of HMGCR measured at 0.1 uM after 16 hrs relative to control. The experiment is classed as cell-based.
Target sequence in this assay (P40337 whole entry, looked up, one chain of several): as above
Experiment [8] has the same target. The experiment can be described thus: PROTAC activity at VHL/recombinant HMGCR in human Insig-depletion HepG2 cells assessed as degradation of HMGCR measured after 16 hrs. The experiment is classed as cell-based.
Target sequence in this assay (P40337 whole entry, one chain of several): as the sequence (P40337 whole entry, looked up, one chain of several) above
For experiment [9] the target is unchanged. The experiment can be described thus: PROTAC activity at VHL/recombinant HMGCR in human Insig-depletion HepG2 cells assessed as degradation of HMGCR measured at 1 uM after 16 hrs relative to control. The experiment is classed as cell-based.
Target sequence in this assay (P40337 whole entry, looked up, one chain of several): as above
In experiment [10] the target is von Hippel-Lindau disease tumor suppressor/Estrogen receptor (Homo sapiens, UniProt P03372+P40337). The experiment can be described thus: PROTAC activity at VHL/ERalpha in human MCF7 cells assessed as degradation of ERalpha. The experiment is classed as cell-based.
The target in experiment [11] is von Hippel-Lindau disease tumor suppressor/G-protein coupled estrogen receptor 1 (Homo sapiens, UniProt Q99527+P40337). As to the kind of experiment: PROTAC activity at VHL/GPER (unknown origin) assessed as degradation of GPER. In kind it is protein assay.
The subject of another experiment is SK-BR-3. As to the kind of experiment: Cytotoxicity against human SK-BR-3 cells by inducing cell cycle arrest incubated for 30 mins measured by FacScallibur flow cytometric analysis. The settings on record: SK-BR-3, 0.5 h. The experiment is classed as functional, cell-based. A general note: In flow cytometry, cells or beads pass a laser one at a time.
The test system of the next experiment is MCF7. The experiment can be described thus: Cytotoxicity against human MCF7 cells by inducing cell cycle arrest incubated for 30 mins measured by FacScallibur flow cytometric analysis. In kind it is functional, cell-based. The settings on record: MCF7, 0.5 h.
Experiment [12] concerns the target T4, Kelch-like ECH-associated protein 1/Bromodomain-containing protein 4 (Homo sapiens, UniProt O60885+Q14145). The experiment can be described thus: PROTAC activity at Keap1/BRD4 in human MDA-MB-231 cells assessed as degradation of BRD4 measured after 10 hrs. The experiment is classed as cell-based.
Experiment [13] deals with T4, Kelch-like ECH-associated protein 1/Bromodomain-containing protein 4. The experiment can be described thus: PROTAC activity at Keap1/BRD4 in human MDA-MB-231 cells assessed as degradation of BRD4 measured after 5 hrs. In kind it is cell-based.
The target in experiment [14] is Kelch-like ECH-associated protein 1/Cyclin-dependent kinase 9 (Homo sapiens, UniProt P50750+Q14145). The experiment can be described thus: PROTAC activity at Keap1/CDK9 in human MOLT4 cells measured after 16 hrs. The settings on record: molt-4. The experiment is classed as cell-based.
The test system of a further experiment is CWR22R. As to the kind of experiment: Cytotoxicity against human 22Rv1 cells. In kind it is functional, cell-based.
The next experiment has as its system LNCaP. As to the kind of experiment: Cytotoxicity against human LNCap cells. In kind it is functional, cell-based.
Another experiment concerns DU-145. As to the kind of experiment: Cytotoxicity against human DU-145 cells. In kind it is functional, cell-based.

T4 sequence (Q14145 whole entry, looked up, other chains not shown): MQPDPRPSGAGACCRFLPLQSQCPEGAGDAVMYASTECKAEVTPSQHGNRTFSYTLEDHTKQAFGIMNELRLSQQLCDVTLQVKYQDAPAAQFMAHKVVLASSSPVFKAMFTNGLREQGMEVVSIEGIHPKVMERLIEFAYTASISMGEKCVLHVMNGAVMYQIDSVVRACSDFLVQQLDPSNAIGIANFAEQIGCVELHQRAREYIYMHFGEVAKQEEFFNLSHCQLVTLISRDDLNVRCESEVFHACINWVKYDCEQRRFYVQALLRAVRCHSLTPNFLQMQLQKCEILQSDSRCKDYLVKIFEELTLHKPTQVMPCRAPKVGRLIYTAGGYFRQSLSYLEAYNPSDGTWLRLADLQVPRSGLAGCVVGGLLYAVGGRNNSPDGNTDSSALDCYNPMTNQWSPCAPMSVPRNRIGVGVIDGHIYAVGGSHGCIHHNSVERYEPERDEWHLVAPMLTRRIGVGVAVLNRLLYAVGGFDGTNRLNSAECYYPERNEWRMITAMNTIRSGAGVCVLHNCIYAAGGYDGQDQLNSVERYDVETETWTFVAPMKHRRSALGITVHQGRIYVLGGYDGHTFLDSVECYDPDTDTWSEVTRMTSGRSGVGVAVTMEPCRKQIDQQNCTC
Sequence of Kelch-like ECH-associated protein 1/Cyclin-dependent kinase 9 (P50750 whole entry): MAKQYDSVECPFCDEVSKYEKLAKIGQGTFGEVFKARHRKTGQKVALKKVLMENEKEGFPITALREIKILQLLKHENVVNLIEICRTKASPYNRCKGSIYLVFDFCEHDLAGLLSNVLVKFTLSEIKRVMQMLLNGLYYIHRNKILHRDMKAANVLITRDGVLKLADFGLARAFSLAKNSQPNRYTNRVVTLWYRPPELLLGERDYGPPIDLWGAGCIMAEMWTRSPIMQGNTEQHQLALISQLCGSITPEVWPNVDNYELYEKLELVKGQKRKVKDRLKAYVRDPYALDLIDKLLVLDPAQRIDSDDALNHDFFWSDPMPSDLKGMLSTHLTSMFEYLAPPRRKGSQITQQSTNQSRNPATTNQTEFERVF
Sequence of Kelch-like ECH-associated protein 1/Cyclin-dependent kinase 9 (Q14145 whole entry): as the sequence (Q14145 whole entry, looked up, other chains not shown) above
Sequence of von Hippel-Lindau disease tumor suppressor/G-protein coupled estrogen receptor 1 (Q99527 whole entry): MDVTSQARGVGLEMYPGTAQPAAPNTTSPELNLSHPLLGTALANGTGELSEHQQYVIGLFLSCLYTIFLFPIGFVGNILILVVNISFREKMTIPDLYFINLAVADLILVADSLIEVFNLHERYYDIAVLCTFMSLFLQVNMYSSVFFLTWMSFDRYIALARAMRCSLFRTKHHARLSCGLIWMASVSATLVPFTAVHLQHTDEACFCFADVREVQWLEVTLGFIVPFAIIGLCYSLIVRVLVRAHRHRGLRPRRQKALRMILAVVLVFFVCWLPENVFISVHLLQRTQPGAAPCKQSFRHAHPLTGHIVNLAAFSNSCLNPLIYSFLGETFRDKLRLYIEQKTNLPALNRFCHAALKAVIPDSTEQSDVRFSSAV
Sequence of von Hippel-Lindau disease tumor suppressor/G-protein coupled estrogen receptor 1 (P40337 whole entry): as the sequence (P40337 whole entry, looked up, one chain of several) above
Sequence of von Hippel-Lindau disease tumor suppressor/Estrogen receptor (P03372 whole entry): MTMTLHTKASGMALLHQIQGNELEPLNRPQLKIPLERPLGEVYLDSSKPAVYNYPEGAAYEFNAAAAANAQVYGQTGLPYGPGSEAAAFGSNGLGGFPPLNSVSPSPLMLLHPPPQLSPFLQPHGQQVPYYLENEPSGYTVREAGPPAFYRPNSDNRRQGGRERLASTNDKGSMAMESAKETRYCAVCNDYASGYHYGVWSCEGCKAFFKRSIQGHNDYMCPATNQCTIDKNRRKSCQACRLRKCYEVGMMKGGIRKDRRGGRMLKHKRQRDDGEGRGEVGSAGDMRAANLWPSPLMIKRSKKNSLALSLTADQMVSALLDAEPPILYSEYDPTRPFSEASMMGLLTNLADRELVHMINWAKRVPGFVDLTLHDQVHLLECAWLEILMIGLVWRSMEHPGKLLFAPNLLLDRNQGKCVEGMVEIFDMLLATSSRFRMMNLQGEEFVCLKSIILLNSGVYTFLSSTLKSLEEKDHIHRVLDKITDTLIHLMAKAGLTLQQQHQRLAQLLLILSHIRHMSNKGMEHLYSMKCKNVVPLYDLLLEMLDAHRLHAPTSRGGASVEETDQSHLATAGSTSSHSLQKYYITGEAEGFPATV
Sequence of von Hippel-Lindau disease tumor suppressor/Estrogen receptor (P40337 whole entry): as the sequence (P40337 whole entry, looked up, one chain of several) above
Sequence of E3 ubiquitin-protein ligase RNF114/Bromodomain-containing protein 4 (Q9Y508 whole entry, looked up, other chains not shown): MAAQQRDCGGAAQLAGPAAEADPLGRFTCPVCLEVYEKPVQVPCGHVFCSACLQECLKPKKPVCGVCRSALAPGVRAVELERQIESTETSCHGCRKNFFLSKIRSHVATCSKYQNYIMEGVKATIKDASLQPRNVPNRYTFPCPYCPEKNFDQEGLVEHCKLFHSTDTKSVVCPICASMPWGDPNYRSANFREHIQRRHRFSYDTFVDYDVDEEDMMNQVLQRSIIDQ
Sequence of E3 ubiquitin-protein ligase RNF114 (Q9Y508 whole entry): as the sequence (Q9Y508 whole entry, looked up, other chains not shown) above

Consider `O=C(CCCO/N=C1/C(=C2/C(=O)N(Cc3cn(CCOCCNc4cccc5c4C(=O)N(C4CCC(=O)NC4=O)C5=O)nn3)c3ccccc32)Nc2ccccc21)NO` (stereo not drawn), for which, in [1], the Emax came out at 88%. Also, in experiment [2], the DC50 is 109 nM.

Compound `COC(=O)C[C@H]1[C@]2(C)C3=C(C)C(c4ccoc4-c4ccc(C(=O)NCCCNC(=O)C[C@@H]5N=C(c6ccc(Cl)cc6)c6c(sc(C)c6C)-n6c(C)nnc65)cc4)C[C@H]3C[C@@H]2[C@@H]2OC(=O)[C@]3(C)C=CC(=O)[C@@]1(C)[C@@H]23` (stereo partly drawn) had an IC50 in [3] of 240 nM. Further, the DC50 in [4] came to 10 nM.

In the case of `Cc1ncsc1-c1ccc([C@H](C)NC(=O)[C@@H]2CC(OC(=O)CCCCn3cc(CNC(=O)CC[C@H](NC(=O)c4ccc(NCc5cnc6[nH]c(N)nc(=O)c6n5)cc4)C(=O)O)nn3)CN2C(=O)[C@H](NC(=O)CCCCCCCCCCNCCCONC(=O)c2ccc(F)c(F)c2Nc2ccc(I)cc2F)C(C)(C)C)cc1` (stereo partly drawn), inhibition with HT-29 was half-maximal at 436 nM (IC50).

For the compound `Cc1ncsc1-c1ccc(CNC(=O)[C@@H]2C[C@@H](O)CN2C(=O)[C@H](NC(=O)CCCCCCCCCCNC(=O)OC2C[C@@H](C)C=C3C=C[C@H](C)[C@H](CC[C@@H]4C[C@@H](O)CC(=O)O4)[C@H]32)C(C)(C)C)cc1` (stereo partly drawn), half-maximal inhibition in [5] (IC50) was put at 1300 nM. The Emax in [6] came out at 56%.

As for `Cc1ncsc1-c1ccc([C@H](C)NC(=O)[C@@H]2CC(OC(=O)CCCCn3cc(CNC(=O)CC[C@H](NC(=O)c4ccc(NCc5cnc6[nH]c(N)nc(=O)c6n5)cc4)C(=O)O)nn3)CN2C(=O)[C@@H](NC(=O)COCCCOCCNC(=O)C[C@@H]2N=C(c3ccc(Cl)cc3)c3c(sc(C)c3C)-n3c(C)nnc32)C(C)(C)C)cc1` (stereo partly drawn), the IC50 in the experiment with HFF-1 was > 10000 nM; in the experiment with HeLa it was 246 nM.

For `Cc1ncsc1-c1ccc(CNC(=O)[C@@H]2C[C@@H](O)CN2C(=O)[C@H](NC(=O)CCCCCCCCCCNC(=O)OC2C[C@@H](C)C=C3C=C[C@H](C)[C@H](CC[C@@H](O)C[C@@H](O)CC=O)[C@H]32)C(C)(C)C)cc1` (stereo partly drawn), the Emax in experiment [7] worked out at 56%; in [9], 76%. The compound further showed a 50% inhibitory concentration (IC50) in experiment [5] of 250 nM. Further, the DC50 in experiment [8] worked out at 120 nM.

Turning to `Cc1ncsc1-c1ccc(CNC(=O)[C@@H]2C[C@@H](O)CN2C(=O)[C@@H](NC(=O)COCCOCCOCCOCC(=O)NCCOCCOCCOCCOCCOCCOCCOCCOCCC(=O)O[C@H]2CC[C@H]3[C@@H]4CCc5cc(O)ccc5[C@H]4CC[C@]23C)C(C)(C)C)cc1`, the DC50 in [10] worked out at 10000 nM; in experiment [11] it was 100000 nM. In addition, the IC50 is 11100 nM in the experiment on SK-BR-3 and 17000 nM with MCF7.

`CC1=C(O)C(=O)C=C2C1=CC=C1[C@@]2(C)CC[C@@]2(C)[C@@H]3C[C@](C)(C(=O)NCCCOCCOCCOCCCNC(=O)C[C@@H]4N=C(c5ccc(Cl)cc5)c5c(sc(C)c5C)-n5c(C)nnc54)CC[C@]3(C)CC[C@]12C`: the DC50 in experiment [12] was 9.6 nM; in [13], 29 nM.

As to `COc1cc(/C=C/C(=O)N2CCC=CC2=O)cc(OC)c1OCCN1CCN(C(=O)CN2CCC(C(=O)Nc3ncc(SCc4ncc(C(C)(C)C)o4)s3)CC2)CC1`, the DC50 in experiment [14] was 9 nM. Besides, the EC50 with CWR22R was 6.4 nM; with LNCaP, 3.2 nM; in the experiment on DU-145, 8.5 nM.

What is called Emax is the greatest response seen or fitted, relative to the assay's reference. The term IC50 denotes the concentration at which inhibition is half-maximal. Low readings indicate greater potency in that assay, high ones weaker potency in that assay. What is called EC50 is the midpoint of the concentration-response curve.

Source of the values: ChEMBL document CHEMBL5214967, “Natural Product-Inspired Targeted Protein Degraders: Advances and Perspectives” (J Med Chem, 2022).
